How the values were obtained:
[1] = molecular target: T1, Kir6.1/SUR2B (Homo sapiens, UniProt O60706+Q15842); assay: thallium-flux fluorescence assay (FLIPR, BTC/AM); type: cell-based
T1 construct: gene KCNJ8; full-length human subunits co-expressed stably in HEK293 cells; GenScript vectors; four Kir6.1 plus four SUR2B
Description: thallium-flux fluorescence assay (FLIPR, BTC/AM) on Kir6.1/SUR2B

[2] = molecular target: T2, Kir6.2/SUR2A (Homo sapiens, UniProt O60706+Q14654); assay: thallium-flux fluorescence assay (FLIPR, BTC/AM); type: cell-based
T2 construct: gene KCNJ11; full-length human subunits co-expressed stably in HEK293 cells; GenScript vectors; four Kir6.2 plus four SUR2A
T2 sequence (Q14654 whole entry): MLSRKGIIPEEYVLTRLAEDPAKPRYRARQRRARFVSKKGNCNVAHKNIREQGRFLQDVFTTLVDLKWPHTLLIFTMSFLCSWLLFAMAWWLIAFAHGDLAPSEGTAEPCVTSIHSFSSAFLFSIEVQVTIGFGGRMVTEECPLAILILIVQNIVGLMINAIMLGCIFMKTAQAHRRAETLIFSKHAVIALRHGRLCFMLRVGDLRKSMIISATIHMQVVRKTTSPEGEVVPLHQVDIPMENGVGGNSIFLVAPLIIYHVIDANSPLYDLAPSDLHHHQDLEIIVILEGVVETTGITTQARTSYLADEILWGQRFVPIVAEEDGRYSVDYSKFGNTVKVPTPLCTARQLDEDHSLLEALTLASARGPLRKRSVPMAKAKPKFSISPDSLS
T2 sequence (O60706 whole entry): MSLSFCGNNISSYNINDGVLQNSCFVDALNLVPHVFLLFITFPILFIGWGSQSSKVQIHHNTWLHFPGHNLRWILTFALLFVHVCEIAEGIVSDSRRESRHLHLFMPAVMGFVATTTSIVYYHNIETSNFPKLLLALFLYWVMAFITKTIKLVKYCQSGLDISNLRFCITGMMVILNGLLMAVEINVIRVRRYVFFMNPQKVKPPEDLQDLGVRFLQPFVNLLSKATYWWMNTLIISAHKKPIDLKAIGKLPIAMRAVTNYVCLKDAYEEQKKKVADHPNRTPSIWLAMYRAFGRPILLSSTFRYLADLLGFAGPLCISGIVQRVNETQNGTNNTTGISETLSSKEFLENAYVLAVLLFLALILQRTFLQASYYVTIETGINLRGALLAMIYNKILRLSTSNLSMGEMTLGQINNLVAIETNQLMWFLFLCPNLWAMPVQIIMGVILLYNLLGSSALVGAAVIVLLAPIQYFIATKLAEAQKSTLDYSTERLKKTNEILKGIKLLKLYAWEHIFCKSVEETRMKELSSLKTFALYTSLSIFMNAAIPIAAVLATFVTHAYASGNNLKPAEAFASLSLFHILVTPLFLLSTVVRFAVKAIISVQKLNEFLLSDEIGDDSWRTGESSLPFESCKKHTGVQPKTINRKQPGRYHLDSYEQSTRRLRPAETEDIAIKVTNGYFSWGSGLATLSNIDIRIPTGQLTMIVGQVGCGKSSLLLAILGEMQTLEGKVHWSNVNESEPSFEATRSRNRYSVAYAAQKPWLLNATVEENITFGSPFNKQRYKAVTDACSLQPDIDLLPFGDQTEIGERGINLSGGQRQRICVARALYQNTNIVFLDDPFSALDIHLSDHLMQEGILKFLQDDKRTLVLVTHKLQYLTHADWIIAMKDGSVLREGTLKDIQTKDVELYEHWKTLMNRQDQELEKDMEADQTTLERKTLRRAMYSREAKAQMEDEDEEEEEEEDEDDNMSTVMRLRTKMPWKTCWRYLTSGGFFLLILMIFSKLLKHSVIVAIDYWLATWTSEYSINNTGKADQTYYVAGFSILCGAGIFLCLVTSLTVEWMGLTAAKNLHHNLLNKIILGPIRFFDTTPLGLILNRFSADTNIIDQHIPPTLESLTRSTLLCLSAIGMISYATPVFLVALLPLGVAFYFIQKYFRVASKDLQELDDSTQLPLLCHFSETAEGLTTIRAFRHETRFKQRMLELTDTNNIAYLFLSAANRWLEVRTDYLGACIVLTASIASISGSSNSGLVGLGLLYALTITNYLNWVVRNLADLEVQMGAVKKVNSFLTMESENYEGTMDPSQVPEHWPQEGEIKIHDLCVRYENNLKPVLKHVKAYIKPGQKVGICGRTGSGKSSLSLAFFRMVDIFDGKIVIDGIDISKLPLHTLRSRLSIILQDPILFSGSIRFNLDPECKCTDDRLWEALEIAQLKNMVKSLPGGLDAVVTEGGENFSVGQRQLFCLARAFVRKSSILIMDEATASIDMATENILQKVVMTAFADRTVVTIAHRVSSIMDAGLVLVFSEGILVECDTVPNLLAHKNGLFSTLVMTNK
Description: (§1) thallium-flux fluorescence assay (FLIPR, BTC/AM) on Kir6.2/SUR2A

[3] = molecular target: T3, Kir6.2/SUR1 (Homo sapiens, UniProt Q09428+Q14654); assay: thallium-flux fluorescence assay (FLIPR, BTC/AM); type: cell-based
T3 construct: gene KCNJ11; full-length human subunits co-expressed stably in HEK293 cells; GenScript vectors; four Kir6.2 plus four SUR1
T3 sequence (Q14654 whole entry): as the sequence (Q14654 whole entry) above
T3 sequence (Q09428 whole entry): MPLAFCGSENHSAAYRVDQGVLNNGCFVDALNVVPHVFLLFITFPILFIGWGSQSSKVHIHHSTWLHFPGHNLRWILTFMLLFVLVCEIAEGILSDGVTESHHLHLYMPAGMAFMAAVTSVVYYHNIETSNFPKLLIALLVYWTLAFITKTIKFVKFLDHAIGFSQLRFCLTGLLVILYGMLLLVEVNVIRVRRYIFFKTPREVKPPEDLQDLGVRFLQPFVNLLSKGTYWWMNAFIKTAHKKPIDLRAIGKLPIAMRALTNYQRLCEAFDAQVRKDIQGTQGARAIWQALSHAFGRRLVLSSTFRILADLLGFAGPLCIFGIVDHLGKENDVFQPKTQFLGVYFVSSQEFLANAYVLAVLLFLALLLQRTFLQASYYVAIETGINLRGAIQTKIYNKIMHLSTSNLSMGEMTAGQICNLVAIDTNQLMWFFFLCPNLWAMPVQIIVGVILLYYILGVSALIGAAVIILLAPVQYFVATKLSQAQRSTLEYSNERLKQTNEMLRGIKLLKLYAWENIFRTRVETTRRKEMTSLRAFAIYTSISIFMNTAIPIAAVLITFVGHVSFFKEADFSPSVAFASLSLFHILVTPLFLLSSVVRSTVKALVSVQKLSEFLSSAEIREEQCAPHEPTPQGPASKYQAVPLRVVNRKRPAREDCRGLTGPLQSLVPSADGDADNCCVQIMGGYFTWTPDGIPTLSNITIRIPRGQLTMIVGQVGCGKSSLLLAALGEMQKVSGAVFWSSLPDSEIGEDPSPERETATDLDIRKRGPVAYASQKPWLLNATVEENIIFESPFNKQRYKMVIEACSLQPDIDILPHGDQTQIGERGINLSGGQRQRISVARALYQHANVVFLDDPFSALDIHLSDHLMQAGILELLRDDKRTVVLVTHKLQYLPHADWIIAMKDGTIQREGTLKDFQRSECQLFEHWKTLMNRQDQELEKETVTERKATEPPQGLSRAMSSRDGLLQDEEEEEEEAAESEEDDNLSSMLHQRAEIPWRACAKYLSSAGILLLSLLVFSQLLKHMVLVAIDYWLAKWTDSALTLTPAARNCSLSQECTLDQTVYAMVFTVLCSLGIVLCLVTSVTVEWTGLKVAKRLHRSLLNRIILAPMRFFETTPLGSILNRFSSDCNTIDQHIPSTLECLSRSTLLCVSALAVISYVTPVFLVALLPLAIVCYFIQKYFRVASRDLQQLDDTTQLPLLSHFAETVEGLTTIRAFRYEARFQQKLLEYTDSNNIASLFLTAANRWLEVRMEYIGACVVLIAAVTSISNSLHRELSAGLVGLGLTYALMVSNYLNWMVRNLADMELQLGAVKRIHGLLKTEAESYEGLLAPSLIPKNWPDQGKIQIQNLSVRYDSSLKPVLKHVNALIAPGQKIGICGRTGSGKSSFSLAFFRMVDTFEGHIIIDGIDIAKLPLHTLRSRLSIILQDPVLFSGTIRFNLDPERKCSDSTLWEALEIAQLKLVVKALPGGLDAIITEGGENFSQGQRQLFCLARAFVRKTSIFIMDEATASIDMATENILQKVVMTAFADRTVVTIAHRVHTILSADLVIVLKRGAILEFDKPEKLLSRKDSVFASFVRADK
Description: thallium-flux fluorescence assay (FLIPR, BTC/AM) on Kir6.2/SUR1

[4] = thallium-flux fluorescence assay (FLIPR, BTC/AM); type: cell-based, Homo sapiens; conditions: read-out: Kir6.2/SUR1 / IC50
[5] = thallium-flux fluorescence assay (FLIPR, BTC/AM); type: cell-based, Homo sapiens; conditions: read-out: Kir6.1/SUR2B / EC50
Description: as §1

Row | SMILES | IC50 [1] | IC50 [2] | IC50 [3] | EC50 [1] | further results
1 | CCCCNC(=O)NS(=O)(=O)c1ccc(C)cc1 [Tolbutamide] | 41000 ± 11000 nM | 71000 ± 12000 nM | 7500 ± 4100 nM | – | –
2 | O=C1CCCC2=C1[C@H](c1ccc(F)c(Br)c1)C1=C(CCS1(=O)=O)N2 [A-278637] | – | – | – | 170 ± 89 nM | EC50 [2]: 1600 ± 890 nM; EC50 [3]: > 30000 nM
3 | CCOc1cc(CC(=O)N[C@@H](CC(C)C)c2ccccc2N2CCCCC2)ccc1C(=O)O [Repaglinide] | 1.1 ± 0.6 nM | 0.94 ± 0.46 nM | 3.9 ± 1.4 nM | – | –
4 | CC(N/C(=N\C#N)Nc1ccncc1)C(C)(C)C (centres unmarked) [Pinacidil] | – | – | – | – | EC50 [3]: > 30000 nM
5 | Cc1c(C)c2c(c(C)c1O)CCC(C)(COc1ccc(CC3SC(=O)NC3=O)cc1)O2 (centres unmarked) [Troglitazone] | 10000 ± 6500 nM | 30000 ± 16000 nM | 14000 ± 3100 nM | – | –
6 | C1CCC(/N=C(\NC23CC4CC(CC(C4)C2)C3)N2CCOCC2)CC1 [PNU-37883A] | 290 ± 210 nM | – | > 100000 nM | – | IC50 [4]: > 100000 nM
7 | CC1=NS(=O)(=O)c2cc(Cl)ccc2N1 [Diazoxide] | – | – | – | 9700 ± 5700 nM | EC50 [2]: > 100000 nM
8 | CCC1=C(C)CN(C(=O)NCCc2ccc(S(=O)(=O)NC(=O)N[C@H]3CC[C@H](C)CC3)cc2)C1=O [Glimepiride] | 33 ± 23 nM | 17 ± 9 nM | 2.3 ± 1.2 nM | – | –
9 | CC(C)[C@H]1CC[C@H](C(=O)N[C@H](Cc2ccccc2)C(=O)O)CC1 [Nateglinide] | 14000 ± 6700 nM | 16000 ± 7300 nM | 44 ± 13 nM | – | –
10 | CN(CCOc1ccc(CC2SC(=O)NC2=O)cc1)c1ccccn1 (centres unmarked) [Rosiglitazone] | 8500 ± 4600 nM | – | > 100000 nM | – | IC50 [4]: > 100000 nM
11 | Cc1ccc(S(=O)(=O)NC(=O)NN2CC3CCCC3C2)cc1 (centres unmarked) [Gliclazide] | 24000 ± 11000 nM | 55000 ± 22000 nM | 610 ± 450 nM | – | –
12 | COc1ccc(Cl)cc1C(=O)NCCc1ccc(S(=O)(=O)NC(=O)NC2CCCCC2)cc1 [Glibenclamide] | 21 ± 14 nM | 9.9 ± 4.1 nM | – | – | –
13 | COc1ccc2c(c1)C(=O)N(CCc1ccc(S(=O)(=O)NC(=O)NC3CCCCC3)cc1)C(=O)C2(C)C [Gliquidone] | 4500 ± 3600 nM | 780 ± 580 nM | 6.9 ± 5 nM | – | –

Now from value to compound, other results behind:

Row | IC50 [1] | IC50 [2] | IC50 [3] | EC50 [1] | SMILES | further results
14 | – | – | – | 52 ± 24 nM | CCC(C)(C)NC(=NC#N)Nc1cccnc1 [P1075] | EC50 [2]: 510 ± 270 nM; EC50 [3]: > 30000 nM
15 | – | – | – | > 30000 nM | CC1(C)Oc2ccc(C#N)cc2[C@H](N(Cc2ncc[nH]2)c2ccc(Cl)cc2)[C@H]1O [BMS-191095] | EC50 [5]: > 30000 nM
16 | – | – | – | 150 ± 90 nM | CC(O)(C(=O)Nc1ccc(S(=O)(=O)c2ccccc2)cc1)C(F)(F)F (centres unmarked) [ZM226600] | EC50 [2]: 2800 ± 2200 nM; EC50 [3]: > 30000 nM
17 | – | – | – | 75 ± 42 nM | CC(=O)N(O)[C@@H]1c2cc(C#N)ccc2OC(C)(C)[C@H]1O [Y-26763] | EC50 [2]: 1300 ± 970 nM; EC50 [3]: 4100 ± 2100 nM
18 | – | – | – | > 30000 nM | CC1(NC2=NS(=O)(=O)c3sc(Cl)cc3N2)CC1 [NN414] | –

Source: paper PMC9966414, “Pharmacological Profiling of KATP Channel Modulators: An Outlook for New Treatment Opportunities for Migraine” (Pharmaceuticals, 2023)
